Where two headings read alike, the source gives them in different places.
Experiments:
Format in all cases: cell-based
[1] = tested on: T47D (PI3Kα H1047R mutant) cells; experiment: Cell viability (CellTiter-Glo 2.0) in T47D cells; conditions: Homo sapiens, approximately 72 hours
In short: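 IC50 values derive from four-parameter fits of CellTiter-Glo luminescence expressed as percent of vehicle control. Cells (T47D or SKBR3) were plated at 1000/well the day before dosing and incubated about 72 h at 37° C with a 10-point, 1:4 series starting at 10 μm.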

[2] = tested on: pAKT in T47D (PI3Kα H1047R mutant) cells; experiment: Inhibition of pAKT (alphaLISA Surefire Ultra AKT 1/2/3 pS473) in T47D cells; conditions: Homo sapiens, read-out: T47D (H1047R) pAKT 24 hr (IC50)
In short: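 AlphaLISA read-out of AKT pS473 in lysates after roughly 24 h compound exposure at 37° C in HBSS. Ten concentrations, 1:4 dilutions from a 10.4 μm top dose. Percent of control uses alpelisib at 3.125 μm as background and DMSO as vehicle; four-parameter curve gives IC50.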

[3] = tested on: SKBR3 (PI3Kα wild type) cells; experiment: Cell viability (CellTiter-Glo 2.0) in SKBR3 cells; conditions: Homo sapiens
Experimental: This Example illustrates that representative compounds of the invention decrease the viability of cells.
The ability of a compound of Formula (I) to decrease the viability of cells was measured using CellTiter-Glo 2.0 (CTG) Luminescent Cell Viability Assay (#G9241) obtained from Promega (Madison, WI).
To prepare assay plates for viability assays, cells were trypsinized, resuspended in fresh media, and viable cells were counted utilizing trypan blue exclusion. T47D, SKBR3, or MKN1 cells were seeded at 1000 cells in 30 μl per well in a solid white flat bottom 384 cell culture plate (Perkin Elmer #6007680) and incubated at 37° C. overnight.
Assay day 1, cells were dosed using an Echo Liquid Handler (Beckman Coulter) with compounds at a 10 μm starting concentration and serially diluted (1:4) for a total of 10 concentrations. Cells were incubated for approximately 72 hours with the compounds (solubilized in DMSO) at 37° C. After 72 hours of treatment, cell plates were equilibrated to room temperature before adding 15 μl of CTG to each well, plates were then covered in aluminum foil to protect from light, incubated at room temperature for 30 minutes on a microtiter plate shaker, and luminescence readings were collected using a CLARIOstar microplate reader (BMG Labtech, Germany). Percent of vehicle control values were plotted as log(inhibitor) vs. response—Variable slope (four parameters) for curve fitting and IC50 values were determined using XLfit.

[4] = T47D (PI3Kα H1047R mutant) cells, 24 hr compound incubation, alphaLISA pS473
[5] = SK-BR-3, SKBR3 (PI3Kα wild type) cells, approximately 72 hours, CellTiter-Glo 2.0, read-out: SKBR3 (WT) Viability IC50
[6] = SK-BR-3, 72 h, read-out: SKBR3 (WT) Viability IC50 (nM)

| Compound | IC50 ([1]; T47D, 72 h) | IC50 [2, 4] | IC50 [3, 5] | IC50 [1] | IC50 ([2]; T47D, 24 h) | IC50 [3, 6] |
| --- | --- | --- | --- | --- | --- | --- |
| Cc1cc([C@@H](C)Nc2ccccc2C(=O)O)c2nc(N3CCN(C(=O)C[C@@H]4CC4(F)F)CC3)c(C#N)nc2c1 (single isomer, unassigned) [Example 197] | 105 nM | 1.8 nM | > 10000 nM | – | – | – |
| Cc1cc([C@@H](C)Nc2ccc(Cl)nc2C(=O)O)c2nc(N3C[C@H](CO)C(F)(F)C3)c(C#N)nc2c1 (single isomer, unassigned) [Example 210A] | 135 nM | 0.69 nM | > 10000 nM | – | – | – |
| Cc1cc([C@@H](C)Nc2ccc(Cl)nc2C(=O)O)c2nc(N3C[C@@H](CO)C(F)(F)C3)c(C#N)nc2c1 (single isomer, unassigned) [Example 210B] | 121 nM | 0.8 nM | > 10000 nM | – | – | – |
| COC[C@@H]1CN(c2nc3c([C@@H](C)Nc4ccc(Cl)nc4C(=O)O)cc(C)cc3nc2C#N)CC1(F)F (single isomer, unassigned) [Example 211A] | 78 nM | 5.7 nM | 6900 nM | – | – | – |
| COC[C@H]1CN(c2nc3c([C@@H](C)Nc4ccc(Cl)nc4C(=O)O)cc(C)cc3nc2C#N)CC1(F)F (single isomer, unassigned) [Example 211B] | 2.7 nM | 2.6 nM | 6800 nM | – | – | – |
| Cc1cc([C@@H](C)Nc2ccc(Cl)nc2C(=O)O)c2nc(N3C[C@H]4COC[C@@H]4C3)c(C#N)nc2c1 (single isomer, unassigned) [Example 229A] | 16.6 nM | 0.55 nM | 3080 nM | – | – | – |
| Cc1cc([C@@H](C)Nc2ccc(Cl)nc2C(=O)O)c2nc(N3C[C@@H]4COC[C@H]4C3)c(C#N)nc2c1 (single isomer, unassigned) [Example 229B] | 18.6 nM | 1.2 nM | 4920 nM | – | – | – |
| Cc1cc([C@@H](C)Nc2ccc(Cl)nc2C(=O)O)c2nc(N3CCC(F)(F)[C@@H](CO)C3)c(C#N)nc2c1 (single isomer, unassigned) [Example 234A] | 73 nM | 2.8 nM | > 10000 nM | – | – | – |
| Cc1cc([C@@H](C)Nc2ccc(Cl)nc2C(=O)O)c2nc(N3CCC(F)(F)[C@H](CO)C3)c(C#N)nc2c1 (single isomer, unassigned) [Example 234B] | 85 nM | 3.6 nM | > 10000 nM | – | – | – |
| Cc1cc([C@@H](C)Nc2ccc(Cl)nc2C(=O)O)c2nc(N3CCO[C@@H]4C[C@@H]43)c(C#N)nc2c1 (single isomer, unassigned) [Example 239A] | 39 nM | 1 nM | > 10000 nM | – | – | – |
| Cc1cc([C@@H](C)Nc2ccc(Cl)nc2C(=O)O)c2nc(N3CCO[C@H]4C[C@H]43)c(C#N)nc2c1 (single isomer, unassigned) [Example 239B] | 22 nM | 0.4 nM | 7260 nM | – | – | – |
| Cc1cc([C@@H](C)Nc2ccc(Cl)nc2C(=O)O)c2nc(N3C[C@@H]4CO[C@@H](C4)C3)c(C#N)nc2c1 (single isomer, unassigned) [Example 243A] | 62 nM | 0.34 nM | 2860 nM | – | – | – |
| Cc1cc([C@@H](C)Nc2ccc(Cl)nc2C(=O)O)c2nc(N3C[C@H]4CO[C@H](C4)C3)c(C#N)nc2c1 (single isomer, unassigned) [Example 243B] | 50 nM | 0.52 nM | > 10000 nM | – | – | – |
| Cc1cc([C@@H](C)Nc2ccc(Cl)nc2C(=O)O)c2nc(N3CC4CC[C@@]4(F)C3)c(C#N)nc2c1 (single isomer, unassigned) [Example 244A] | 57 nM | 1.2 nM | > 10000 nM | – | – | – |
| Cc1cc([C@@H](C)Nc2ccc(Cl)nc2C(=O)O)c2nc(N3CC4CCC4(F)C3)c(C#N)nc2c1 (single isomer, unassigned) [Example 244B] | 89 nM | 1.3 nM | > 10000 nM | – | – | – |
| Cc1cc([C@@H](C)Nc2ccc(Cl)nc2C(=O)O)c2nc(N3CC[C@@]4(CCCO4)C3)c(C#N)nc2c1 (single isomer, unassigned) [Example 253A] | 197 nM | 5.6 nM | 6850 nM | – | – | – |
| Cc1cc([C@@H](C)Nc2ccc(Cl)nc2C(=O)O)c2nc(N3CC[C@]4(CCCO4)C3)c(C#N)nc2c1 (single isomer, unassigned) [Example 253B] | 113 nM | 5.8 nM | 5140 nM | – | – | – |
| Cc1cc([C@@H](C)Nc2ccc(Cl)nc2C(=O)O)c2nc(N3CC4(CC[C@@H]4F)C3)c(C#N)nc2c1 (single isomer, unassigned) [Example 257A] | 139 nM | 4.8 nM | 3740 nM | – | – | – |
| Cc1cc(C(C)Nc2ccccc2C(=O)O)c2nc(N3Cc4ccccc4C3)c(C#N)nc2c1 (stereo not drawn) [Example 2, 2-((1-(2-cyano-3-(isoindolin-2-yl)-7-methylquinoxalin-5-yl)ethyl)amino)benzoic acid] | 631 nM | 18.2 nM | > 10000 nM | – | – | – |
| Cc1cc([C@@H](C)Nc2ccccc2C(=O)O)c2nc(N3CCC(F)(F)CC3)c(C#N)nc2c1 [Example 3, (R)-2-((1-(2-cyano-3-(4,4-difluoropiperidin-1-yl)-7-methylquinoxalin-5-yl)ethyl)amino)benzoate] | 170 nM | 9.5 nM | > 10000 nM | – | – | – |
| Cc1cc([C@H](C)Nc2ccccc2C(=O)O)c2nc(N3CCC(F)(F)CC3)c(C#N)nc2c1 [Example 4, (S)-2-((1-(2-cyano-3-(4,4-difluoropiperidin-1-yl)-7-methylquinoxalin-5-yl)ethyl)amino)benzoate] | 9330 nM | 844 nM | > 10000 nM | – | – | – |
| Cc1cc([C@@H](C)Nc2ccc(Cl)nc2C(=O)O)c2nc(N3CCC(F)(F)CC3)c(C#N)nc2c1 [Example 5, (R)-6-chloro-3-((1-(2-cyano-3-(4,4-difluoropiperidin-1-yl)-7-methylquinoxalin-5-yl)ethyl)amino)picolinic acid] | – | – | – | 37.3 nM | 0.8 nM | 3970 nM |
| Cc1cc([C@@H](C)Nc2ccccc2C(=O)O)c2nc(N3Cc4ccccc4C3)c(C#N)nc2c1 [Example 6, (R)-2-((1-(2-cyano-3-(isoindolin-2-yl)-7-methylquinoxalin-5-yl)ethyl)amino)benzoic acid] | – | – | – | 294 nM | 5 nM | > 10000 nM |
| Cc1cc([C@@H](C)Nc2ccc(Cl)nc2C(=O)O)c2nc(N3CC4CC(C3)C4(F)F)c(C#N)nc2c1 [Example 7, 6-chloro-3-(((1R)-1-(2-cyano-3-(6,6-difluoro-3-azabicyclo[3.1.1]heptan-3-yl)-7-methylquinoxalin-5-yl)ethyl)amino)picolinic acid] | 59.8 nM | 0.8 nM | > 10000 nM | – | – | – |
| Cc1cc([C@@H](C)Nc2ccc(Cl)nc2C(=O)O)c2nc(N3CC4C(C3)C4(F)F)c(C#N)nc2c1 (stereo partly drawn) [Example 21, 6-chloro-3-(((1R)-1-(2-cyano-3-(6,6-difluoro-3-azabicyclo[3.1.0]hexan-3-yl)-7-methylquinoxalin-5-yl)ethyl)amino)picolinic acid] | 32.1 nM | 0.5 nM | > 10000 nM | – | – | – |
| Cc1cc([C@@H](C)Nc2ccc(Cl)nc2C(=O)O)c2nc(N3CCC4(CC4)C(F)(F)C3)c(C#N)nc2c1 [Example 22, (R)-6-chloro-3-((1-(2-cyano-3-(4,4-difluoro-6-azaspiro[2.5]octan-6-yl)-7-methylquinoxalin-5-yl)ethyl)amino)picolinic acid] | 79.3 nM | 1.9 nM | 5320 nM | – | – | – |

— US20240391882A1 (Mirati Therapeutics, Inc., priority 2023, published 2024)
